The text below walks through data of patent publication US20140228248A1, “METHODS AND COMPOSITIONS FOR DETECTING INFECTIONS” (BIOMED VALLEY DISCOVERIES, INC., priority 2011, published 2014).

One assay deals with DH5α E. coli. Briefly: Live cell filter assay in culture media (Millipore NCM filter, scintillation counter). To be noted: for cell based signal over background signal: 10,000 cells incubated for 8 hours, Millipore NCM filter. It counts as cell-based. How it is done:
10,000 cells were put into 2 ml of media (LB, SOB, SOC, DeTox™, or TB), and incubated for 8 hours at 37° C. and shaken at 250 rpm. The samples were then passed through the respective filters (Millipore and others) via a syringe, then the samples were washed with 40 ml of PBS via a syringe. The filter samples were counted using a scintillation counter.
Millipore NCM filters were also used in the live cell experiments. […] Moreover, LB and SOB media strongly potentiated the growth of the DH5α E. coli. The cell based signals are 42.78-fold and 82.63-fold, respectively, over background signal for these two media.
10,000, 50,000 or 100,000 DH5α cells were added into 1 ml SOB media, and 1 μl of 1.76 mM ^14C FIAU was added to the mixture to constitute a 1.76 μM solution. The mixture was incubated for 4 to 6 hours at 37° C. in an agitation incubator. After the incubation period, the mixture was passed through a 0.22 μm Millipore nitrocellulose filter. The filter was then washed with 40 ml of 1×PBS using a syringe. The CPM was determined using a scintillation counter.

Another assay concerns DH5α (E. coli) cells. In words: Detection of cells spiked into human urine / SOB mix (filter assay). It is filed as cell-based. To be noted: 10,000 DH5α cells, 50% urine and 50% SOB mix, 1.76 μM, 5 hours. How it is done:
In another set of experiments, 10,000 DH5α cells were added into 1 ml human urine. 1 ml of SOB media and 2 μl of 1.76 mM ^14C FIAU was added to the mixture to constitute a 1.76 μM solution. The mixture was incubated for 5 hours at 37° C. in an agitation incubator. After the incubation period, the mixture was passed through a 0.22 μm Millipore nitrocellulose filter. The filter was then washed with 40 ml of 1×PBS using a syringe. The CPM was determined using a scintillation counter. Thus, 10,000 DH5α (E. coli) cells were detectable in a 50% urine and 50% SOB mix in 5 hours.

The subject of the next assay is DH5α cells. Briefly: Detection of cells spiked into rat CSF / SOB mix (filter assay). It is filed as cell-based, E. coli. The conditions noted are these: 10,000 cells, 50% CSF (rat) and 50% SOB, 1.76 μM, 5 hours or less. Here is the method: An experiment was also performed to determine whether a shorter incubation period is possible. 10,000 DH5α cells were added into 1 ml rat CSF. 1 ml of SOB media and 2 μl of 1.76 mM ^14C FIAU was added to the mixture to constitute a 1.76 μM solution. The mixture was incubated for 5 hours at 37° C. in an agitation incubator. After the incubation period, the mixture was passed through a 0.22 μm Millipore nitrocellulose filter. The filter was then washed with 40 ml of 1×PBS using a syringe. The CPM was determined using a scintillation counter. Thus, 10,000 cells after 5 hours or less of incubation in a mixture containing 50% CSF and 50% SOB were detectable.

With `O=c1[nH]c(=O)n([C@@H]2O[C@H](CO)[C@@H](O)[C@@H]2F)cc1I` [FIAU, 2′-fluoro-5-iodo-1-β-D-arabinofuranosyluracil], the “cell based signal over background signal” value in the assay with DH5α E. coli (LB media) is reported as 42.78 fold; with DH5α E. coli (SOB media) it was 82.63 fold.

As for `O=c1[nH][14c](=O)n([C@@H]2O[C@H](CO)[C@@H](O)[C@@H]2F)cc1I` [^14C-FIAU, ^14C-labeled 2′-fluoro-5-iodo-1-β-D-arabinofuranosyluracil], the detectability of cells entry with DH5α (E. coli) cells and in the assay on DH5α cells was “detectable” throughout. For the same molecule, the signal versus background result with DH5α E. coli (10,000 DH5α cells, 1 ml SOB, 1.76 μM (200 mCi/mmol), about 4 hours) was “signal above the background”.
